Test results from patent publication US5001154A, “Fervescence composition” (K.K. Ueno Seiyaku Oyo Kenkyujo, priority 1987, dated 1991).

Key:
[1] = fervescence activity by intravenous injection (rising of body temperature), 1 mg/kg; format: in vivo, Wister male rats; settings: 1 mg/kg intravenous, urethane-anesthetized rats
Description: fervescence activity by intravenous injection Test animals were Wister male rats (8 weeks old) weighing 200±10 g. The rats were applied to anesthesia by intraperitoneal injection of 1.25 g/kg of urethane. Each test drug was dissolved into ethyl alcohol. The ethyl alcohol solution was diluted with Ringer's solution at least 50 times just before use and 1 mg/kg of the each test drug was intravenously administered. Body temperature was measured in the same manner as in Example 1. Ringer's solution containing ethyl alcohol was administered as control. Rising of body temperature is shown by the rising degree (°C.) from the temperature before administration.

[2] = sedation activity and rising of body temperature in dog; format: in vivo, hybrid adult dog; settings: intravenous; for Rising of Body Temperature: 0.5 mg/kg
Excerpt: Sedation Activity A 19-methyl type compound having strong fervescence activity was compared with PGE2 […] sedation activity. A hybrid adult dog was held on a holder for dog and intravenously administered with a test drug dissolved in Ringer's solutions at the forefoot. Sedation activity was judged as follows: Sedation Degree 1: Disappearance of body movement 2: Closing of the eyes 3: Leaning on the holding belt

[3] = fervescence activity by intracerebroventricular injection (rising of body temperature); format: in vivo, Wister male rats; settings: 400 ng in 3 μl into lateral ventricle, urethane-anesthetized rats, rectal temperature
Description: fervescence activity by intracerebroventricular injection
Wister male rats (8 weeks old) were used as test animals.
Rats were applied to anesthesia by intraperitoneal injection with 1.25 g/kg of urethane and a stainless guide cannula was inserted into the lateral ventricle for administration of a test drug according to Pellegrino's Rat brain atras.
Each test drug was dissolved into an artificial cerebrospinal fluid and 400 ng as drug in 3 μl was injected through the injection cannula for 15 seconds. The artificial cerebrospinal fluid alone was injected as control. Body temperature was measured continuously at the rectum. Rising of body temperature is shown by the rising degree (°C.) from the temperature before administration.

[4] = fervescence (recovery of body temperature) activity at hemorrhage load; format: in vivo, Wister male rats; settings: rat loaded with hemorrhage
Description: fervescence (recovery of body temperature) activity at hemorrhage load
Wister male rats (weight: 200 g) were subcutaneously injected on the back with 1.5 g/kg of urethane, subjected to anesthesia. Hemorrhage was then induced by withdrawal of blood by puncture of the heart for the total volume of 3 ml equivalent to 1.5% of the body weight. After kept in a room for 60 minutes, the rats were administered intravenously with test solutions prepared by dissolving test drugs into Ringer's solution so as to administer the rat at a dose of 0.5 or 1 mg/kg, and change of the body temperature was observed. Ringer's solution was administered as control.
In the figures, (1), (2) and (3) correspond to the results of administration of doses 1 mg/kg, 0.5 mg/kg and Ringer's solution alone, respectively.

SMILES | Rising of Body Temperature [1] | other results
CCCCCC(=O)CC[C@H]1[C@H](O)CC(=O)[C@@H]1CC(=O)CCCCC(=O)OCC (relative stereo) [compound 9] | +0.7 °C | 
CCCCC[C@H](O)/C=C/[C@H]1[C@H](O)CC(=O)[C@@H]1C/C=C\CCCC(=O)OC [Test drug 59, PGE2 methyl ester, reference compound] |  | sedation activity (in words) [2]: clear sedation activity
CCCCCC(=O)CC[C@H]1[C@H](O)CC(=O)[C@@H]1CCCCCCC(=O)O [compound 1] | 0 °C | Rising of Body Temperature [3]: +0.4 °C
CCCCCC(=O)CC[C@H]1[C@H](O)CC(=O)[C@@H]1CCCCC=CC(=O)O [compound 3] | 0 °C | 
CCCCCC(=O)CC[C@H]1[C@H](O)CC(=O)[C@@H]1CCCCC=CC(=O)OC [compound 4] | +0.8 °C | 
CCCCCCCC(=O)CC[C@H]1[C@H](O)CC(=O)[C@@H]1CCCCCCC(=O)OC [compound 5] | +0.4 °C | 
CCCCCC(=O)CC[C@H]1[C@H](O)CC(=O)[C@@H]1CC(=O)CCCCC(=O)O [compound 6] | 0 °C | Rising of Body Temperature [3]: +0.8 °C
CCCCCC(=O)CC[C@H]1[C@H](O)CC(=O)[C@@H]1CC(=O)CCCCC(=O)OC [compound 7] | +0.8 °C | Rising of Body Temperature [3]: +0.6 °C
CCCCCC(=O)CC[C@H]1[C@H](O)CC(=O)[C@@H]1CC(=O)CCCCC(=O)OCC [compound 8] | +0.6 °C | Rising of Body Temperature [3]: +0.4 °C; Rising of Body Temperature ([4]; 0.5 mg/kg intravenous): +0.7 °C; Rising of Body Temperature ([4]; 1 mg/kg intravenous): +0.8 °C
CCCCCC(=O)CC[C@H]1[C@H](O)CC(=O)[C@@H]1CC(=O)CCCCC(=O)OCCCC [compound 10] | +0.2 °C | 
CCCCC(C)C(=O)CC[C@H]1[C@H](O)CC(=O)[C@@H]1CC(=O)CCCCC(=O)OC (stereo partly drawn) [compound 11] | +1.5 °C | 
CCCCC(C)C(=O)CC[C@H]1[C@H](O)CC(=O)[C@@H]1CC(=O)CCCCC(=O)OCC (stereo partly drawn) [compound 12] | +0.9 °C | 
CCCCC(C)(C)C(=O)CC[C@H]1[C@H](O)CC(=O)[C@@H]1CC(=O)CCCCC(=O)OCC [compound 13] | +1.1 °C | 
CCCCC(F)C(=O)CC[C@H]1[C@H](O)CC(=O)[C@@H]1CC(=O)CCCCC(=O)OCC (stereo partly drawn) [compound 14] | +1.0 °C | 
COC(=O)CCCCC(=O)C[C@H]1C(=O)C[C@@H](O)[C@@H]1CCC(=O)CCCC(C)C [compound 15] | +0.7 °C | Rising of Body Temperature [2]: 1.2 °C
COC(=O)CCCCC(=O)C[C@H]1C(=O)C[C@@H](CO)[C@@H]1CCC(=O)CCCC(C)C [compound 17] | +0.4 °C | 
CCCCCCC(=O)CC[C@H]1[C@H](O)CC(=O)[C@@H]1CC(=O)CCCCC(=O)OCC [compound 18] | +0.7 °C | Rising of Body Temperature ([4]; 0.5 mg/kg intravenous): +0.4 °C; Rising of Body Temperature ([4]; 1 mg/kg intravenous): +0.8 °C
CCCCCC(=O)CC[C@H]1[C@H](C)CC(=O)[C@@H]1CC(=O)CCCCC(=O)OC [compound 19] | +1.0 °C | 
CCCCCC(=O)CC[C@H]1[C@H](C)CC(=O)[C@@H]1CC(=O)CCCCC(=O)OCC [compound 20] | +1.3 °C | Rising of Body Temperature ([4]; 0.5 mg/kg intravenous): +0.5 °C; Rising of Body Temperature ([4]; 1 mg/kg intravenous): +0.8 °C
CCCCC(F)C(=O)CC[C@H]1[C@H](C)CC(=O)[C@@H]1CC(=O)CCCCC(=O)OCC (stereo partly drawn) [compound 21] | +1.1 °C | 
CCCCCC(=O)CC[C@H]1[C@H](O)CC(=O)[C@@H]1C/C=C\CCCC(=O)O [compound 22] | 0 °C | Rising of Body Temperature [3]: +0.7 °C
CCCCCC(=O)CC[C@H]1[C@H](O)CC(=O)[C@@H]1C/C=C\CCCC(=O)OCc1ccccc1 [compound 27] | +0.3 °C | 
CCCCCC(=O)CC[C@H]1[C@H](O)CC(=O)[C@@H]1C/C=C\CCCC(=O)OCCO [compound 28] | +0.4 °C | 
CCCCCC(=O)CC[C@H]1[C@H](O)CC(=O)[C@@H]1C/C=C\CC=CC(=O)OC [compound 29] | +1.0 °C | 
CCCCCC(=O)CC[C@H]1[C@H](O)CC(=O)[C@@H]1C/C=C\CC(C)CC(=O)OC (stereo partly drawn) [compound 30] | +1.7 °C | 
CCCCCC(=O)CC[C@H]1[C@H](O)CC(=O)[C@@H]1C/C=C\CC(C)CC(=O)OCC (stereo partly drawn) [compound 31] | +1.0 °C | 
CCCCC(C)C(=O)CC[C@H]1[C@H](O)CC(=O)[C@@H]1C/C=C\CCCC(=O)OC (stereo partly drawn) [compound 32] | +1.4 °C | 

SMILES | Rising of Body Temperature [1] | other results
CCCCC(C)C(=O)CC[C@H]1[C@H](O)CC(=O)[C@@H]1C/C=C\CCCC(=O)OCC (stereo partly drawn) [compound 33] | +0.9 °C | 
CCCCC(C)C(=O)CC[C@H]1[C@H](O)CC(=O)[C@@H]1C/C=C\CC(C)CC(=O)OC (stereo partly drawn) [compound 34] | +1.0 °C | 
CCCCC(C)(C)C(=O)CC[C@H]1[C@H](O)CC(=O)[C@@H]1C/C=C\CCCC(=O)OC [compound 35] | +1.0 °C | 
CCCCC(C)(C)C(=O)CC[C@H]1[C@H](O)CC(=O)[C@@H]1C/C=C\CCCC(=O)OCC [compound 36] | +0.6 °C | 
CCCCC(O)C(=O)CC[C@H]1[C@H](O)CC(=O)[C@@H]1C/C=C\CCCC(=O)OCC (stereo partly drawn) [compound 37] | +0.2 °C | 
CCCCC(F)C(=O)CC[C@H]1[C@H](O)CC(=O)[C@@H]1C/C=C\CCCC(=O)O (stereo partly drawn) [compound 38] | +0.3 °C | 
CCCCC(F)C(=O)CC[C@H]1[C@H](O)CC(=O)[C@@H]1C/C=C\CCCC(=O)OC (stereo partly drawn) [compound 39] | +0.9 °C | 
CCCCC(F)C(=O)CC[C@H]1[C@H](O)CC(=O)[C@@H]1C/C=C\CCCC(=O)OCC (stereo partly drawn) [compound 40] | +1.4 °C | 
CCCCCC(F)C(=O)CC[C@H]1[C@H](O)CC(=O)[C@@H]1C/C=C\CCCC(=O)OC (stereo partly drawn) [compound 41] | +0.8 °C | 
CCCCC(F)C(=O)CC[C@H]1[C@H](C)CC(=O)[C@@H]1C/C=C\CCCC(=O)OCC (stereo partly drawn) [compound 42] | +1.4 °C | 
CCCCCC(=O)CC[C@H]1[C@H](C)CC(=O)[C@@H]1C/C=C\CCCC(=O)OCC [compound 43] | +0.2 °C | 
CCC[C@H](C)CC(=O)CC[C@H]1[C@H](O)CC(=O)[C@@H]1C/C=C\CCCC(=O)OC [compound 44] | +0.2 °C | 
COC(=O)CCC/C=C\C[C@H]1C(=O)C[C@@H](O)[C@@H]1CCC(=O)CCCC(C)C [compound 45] | +2.0 °C | Rising of Body Temperature [2]: 0.5 °C
CCOC(=O)CCC/C=C\C[C@H]1C(=O)C[C@@H](O)[C@@H]1CCC(=O)CCCC(C)C [compound 46] | +0.6 °C | 
COCCCCCC(=O)CC[C@H]1[C@H](O)CC(=O)[C@@H]1C/C=C\CCCC(=O)OC [compound 47] | +0.3 °C | 
COCCCCCC(=O)CC[C@H]1[C@H](O)CC(=O)[C@@H]1C/C=C\CC=CC(=O)OC [compound 48] | +0.2 °C | 
COCCCCCC(=O)CC[C@H]1[C@H](O)CC(=O)[C@@H]1C/C=C\CC(C)CC(=O)OC (stereo partly drawn) [compound 49] | +0.2 °C | 
COCCCCC(C)(C)C(=O)CC[C@H]1[C@H](O)CC(=O)[C@@H]1C/C=C\CCCC(=O)OC [compound 50] | +0.2 °C | 
CC(C)=CCCCCC(=O)CC[C@H]1[C@H](O)CC(=O)[C@@H]1C/C=C\CCCC(=O)O [compound 51] | +0.2 °C | 
COC(=O)CCC/C=C\C[C@H]1C(=O)C[C@@H](O)[C@@H]1CCC(=O)CCCCC=C(C)C [compound 52] | +0.2 °C | 
CCCCCCCC(=O)CC[C@H]1[C@H](O)CC(=O)[C@@H]1C/C=C\CCCC(=O)OC [compound 53] | +0.5 °C | 
CCCCCCCC(=O)CC[C@H]1[C@H](O)CC(=O)[C@@H]1C/C=C\CCCC(=O)OCC [compound 54] | +0.2 °C | 
CCCCCCCC(=O)CC[C@H]1[C@H](C)CC(=O)[C@@H]1C/C=C\CCCC(=O)OC [compound 55] | +0.2 °C | 
CCCCC(F)C(=O)/C=C/[C@H]1[C@H](O)CC(=O)[C@@H]1C/C=C\CCCC(=O)OC (stereo partly drawn) [compound 56] | +1.0 °C | 
CCCCC[C@H](O)/C=C/[C@H]1[C@H](O)CC(=O)[C@@H]1CCCCCCC(=O)O [compound 57] | 0 °C | 
CCCCC[C@H](O)/C=C/[C@H]1[C@H](O)CC(=O)[C@@H]1C/C=C\CCCC(=O)O [compound 58] | +0.7 °C | 
